The source of these data is US9233995B2, “Quinazoline derivatives and quinazoline complex protein kinase inhibitor for inhibiting multiplication of tumor cells and preparation method thereof” (INSTITUTE OF CHEMISTRY, CHINESE ACADEMY OF SCIENCES, priority 2010, dated 2016).

Data set [1] concerns the target T1, EGFR (Epidermal Growth Factor Receptor) (Homo sapiens, UniProt P00533).
T1 construct: purchased CST
As to the kind of experiment: Enzyme-linked immunosorbent assay (ELISA), kinase inhibitory activity (phosphorylation of PTP1B(Tyr66) biotinylated peptide substrate). In kind it is biochemical. The conditions noted are these: average of two independent parallel experiments. The text has this: Protein kinase assay kit: PTP1B(Tyr66) Biotinylated Peptide from CST company is used as a substrate of kinase EGFR (Epidermal Growth Factor Receptor).
In general terms: In an ELISA, binding on a coated surface is turned into a signal by an enzyme label.

Data set [2] concerns Human breast cancer cell line (drug-resistant) MCF-7/A. As to the kind of experiment: Cytotoxicity experiment, SRB method, tumor cell proliferation. In kind it is cell-based. The note with it: 48 h, read-out: IC50 (umol/L) Breast cancer cell (drug-resistant) MCF-7/A. How it is done: (§1) Human breast cancer cell line (drug-resistant) MCF-7/A, human breast cancer cell line (sensitive) MCF-7/S, prostate cancer cell PC-3, keratinocyte Colo-16, human non-small cell lung cancer cell line A549 and etc. are cultured in RPMI1640 medium (Invitrogen, USA) containing 10 wt % fetal bovine serum (FBS, Hyclone, USA), and epidermal growth factor (EGF) at a concentration of 100 ng/ml is added to stimulate growth. After 2-3 days, cells in logarithmic growth phase are collected, and inoculated at 96 well plates (6500 cells/well/100 ul, RPMI1640 containing 100 ng/mL EGF) for 24 h, and then compound at gradient concentrations (200, 100, 50, 25, 12.5, 6.25, 1 μM/L) are added. The same volume of RPMI1640 containing 1 wt % of dimethyl sulfoxide (DMSO) is used as control group of the experiment; the blank group is only culture medium without cell. Three parallel wells are set up for each concentration group. After incubation is continued for 48 h, the cell survival rate is measured by SRB method. Results are shown in Table 2 and Table 3, respectively.
(§2) Wherein, for experiment on compound cytotoxicity assay by sulforhodamine B (SRB) method: Cells in the logarithmic growth phase are collected and inoculated at 96-well plates (6500 cells/well/100 ul, RPMI1640 containing 100 ng/ml of EGF). After incubation for 24 h, compounds at gradient concentrations (200, 100, 50, 25, 12.5, 6.25, 1 (μM/L)) are added. The same volume of RPMI1640 containing 100 ng/ml of EGF is used as control group of the experiment; the blank group is only culture medium without cell. Three parallel wells are set up for each concentration group. After incubation is continued for 48 h, the cell survival rate is measured by SRB method. 50 μl 10% trichloroacetic acid (TCA) pre-cooled (4° C.) is added to each well, it is fixed for 1 hour at 4° C., washed with water for five times, and completely dried, and then 100 μl of SRB solution (Sigma, USA) at concentration of 0.4% by weight is added, and staining is performed at 37° C. in the dark for 30 min. Wash with acetic acid at a concentration of 1% by weight for 4-5 times, dry in the air, add 200 μl of Tris solution (10 mM, pH 10.5), after sufficiently dissolved, the absorbance (absorption wavelength is 570 nm) is measured in microplate reader.
(§3) The growth inhibition rate (IR) is calculated according to the following formula: IR (%)=[1−(experiment group A value−blank group A value)/(control group A value−blank group A value)]×100%, and the IC50 value is calculated using Origin 6.0 software.
(Sulforhodamine B stains cellular protein and so reports cell mass.)

Data set [3] has as its system human breast cancer cell line (sensitive) MCF-7/S. Described as above. Type of data set: cell-based. The conditions noted are these: 48 h, read-out: IC50 (umol/L) Breast cancer cell (sensitive) MCF-7/S. How it is done: as §1, §2, §3
The test system of data set [4] is human non-small cell lung cancer cell line A549. The description is as above. In kind it is cell-based. The note with it: A549, 48 h, read-out: IC50 (μmol/L) Non-small cell lung cancer cell A549. As for the experimental part:
as §1, §2, §3

In a further data set the test system is keratinocyte Colo-16. The data set is described as above. In kind it is cell-based. The conditions noted are these: Colo-16, 48 h, SRB, read-out: IC50 (μmol/L) Keratinocyte Colo-16. As for the experimental part:
as §1, §2, §3

In data set [5] the test system is prostate cancer cell PC-3. The description is as above. In kind it is cell-based. The conditions noted are these: PC-3, 48 h, SRB; read-out: IC50 (μmol/L) Prostate cancer cell PC-3. How it is done:
as §1, §2, §3

The test system of data set [6] is human breast cancer cell line (sensitive) MCF-7/S + EGF. As to the kind of experiment: Cytotoxicity experiment under the condition of additional EGF, SRB method. The conditions noted are these: MCF-7/S with additional EGF 100 ng/ml, 48 h, SRB, read-out: IC50 (umol/L) Breast cancer cell (sensitive) MCF-7/S + EGF. In kind it is cell-based. As for the experimental part: Human breast cancer cell line (sensitive) MCF-7/S and human non-small cell lung cancer cell line A549 are cultured in HAM′S/F-12 medium (HyClone, USA) containing 10 wt % fetal bovine serum (FBS, Hyclone, USA), and 100 ng/ml epidermal growth factor (EGF, Sigma, USA) is added to this medium. Cells described above were purchased from Cell Resource Center, Shanghai Institute for Biological Science, CAS, they are placed in a CO2 incubator and used for the experiment 3-5 days later.
as §2, §3

The nature of data set [7]: Stability (physicochemical properties, Table 1). The conditions noted are these: for Stability (photostability): light.
A short description of data set [8]: Solubility (physicochemical properties, Table 1). The conditions noted are these: room temperature, atmospheric pressure.

Where two headings read alike, the source gives them in different places.

T1 sequence (P00533 25-1210): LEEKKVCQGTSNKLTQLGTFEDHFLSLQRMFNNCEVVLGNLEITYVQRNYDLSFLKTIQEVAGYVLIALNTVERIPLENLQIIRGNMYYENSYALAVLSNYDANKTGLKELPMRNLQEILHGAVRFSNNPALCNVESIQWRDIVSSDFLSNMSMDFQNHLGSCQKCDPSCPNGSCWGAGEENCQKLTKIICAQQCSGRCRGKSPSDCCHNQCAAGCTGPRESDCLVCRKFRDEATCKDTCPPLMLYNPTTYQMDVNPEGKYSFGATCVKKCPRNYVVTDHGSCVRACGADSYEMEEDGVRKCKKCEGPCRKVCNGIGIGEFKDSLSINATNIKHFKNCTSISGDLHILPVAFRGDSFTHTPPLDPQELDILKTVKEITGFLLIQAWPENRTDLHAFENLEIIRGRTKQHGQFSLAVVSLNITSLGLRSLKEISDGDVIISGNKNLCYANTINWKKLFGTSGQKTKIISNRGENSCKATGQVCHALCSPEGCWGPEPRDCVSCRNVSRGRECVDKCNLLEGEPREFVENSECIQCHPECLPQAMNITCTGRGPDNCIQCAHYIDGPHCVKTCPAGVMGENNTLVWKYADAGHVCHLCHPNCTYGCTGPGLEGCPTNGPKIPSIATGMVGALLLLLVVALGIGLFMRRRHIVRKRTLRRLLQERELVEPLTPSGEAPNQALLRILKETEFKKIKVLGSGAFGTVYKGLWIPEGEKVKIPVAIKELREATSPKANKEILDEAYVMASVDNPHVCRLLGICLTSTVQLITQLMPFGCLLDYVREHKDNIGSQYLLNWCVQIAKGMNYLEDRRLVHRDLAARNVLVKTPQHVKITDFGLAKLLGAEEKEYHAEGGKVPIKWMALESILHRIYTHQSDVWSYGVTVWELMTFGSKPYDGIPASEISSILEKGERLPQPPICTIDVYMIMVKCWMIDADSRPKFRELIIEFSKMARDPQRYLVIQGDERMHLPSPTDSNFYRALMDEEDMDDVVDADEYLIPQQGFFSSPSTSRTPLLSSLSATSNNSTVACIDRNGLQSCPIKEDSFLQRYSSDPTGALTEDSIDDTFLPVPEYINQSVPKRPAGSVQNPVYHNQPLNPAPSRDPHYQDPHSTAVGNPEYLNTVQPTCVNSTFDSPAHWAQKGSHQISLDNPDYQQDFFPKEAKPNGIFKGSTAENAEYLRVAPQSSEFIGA

For `COc1cc2ncnc(Nc3ccc(F)c(Cl)c3)c2cc1OCCNCCN` [ZW1001, 6-(2-(2-aminoethylamino)ethoxy)-4-(3-Chloro-4-fluoro-phenylamino)-7-methoxy quinazoline], the IC50 was 0.0046 µM in [1]; > 100 µmol/L in data set [2] (Homo sapiens, MCF7a); 38.34 ± 0.1 µmol/L in data set [3] (Homo sapiens, MCF7S); 51 ± 1.02 µmol/L in data set [4] (Homo sapiens); > 100 µmol/L in the data set with keratinocyte Colo-16 (Keratinocyte); 38.4 ± 2.36 µmol/L in [5]. The IC50 in data set [6] (Homo sapiens, MCF7S) came to 36.3 ± 5.77 µmol/L. Besides, in data set [7], the “Stability (in air)” value is “Stable in air,”. In addition, the “Stability (photostability)” value in data set [7] is “photostable”. Also, the “Solubility in DMSO” value in data set [8] is “Highly soluble in DMSO”. Moreover, the “Solubility in methanol and ethanol” value in data set [8] is listed as “soluble in water, soluble in methanol”. Further, the Solubility in water result in [8] is “slightly”.

In the case of `COc1cc2ncnc(Nc3ccc(F)c(Cl)c3)c2cc1OCCCNCCN` [ZW1002, 6-(3-(2-aminoethylamino)propoxy)-4-(3-Chloro-4-fluoro-phenylamino)-7-methoxy quinazoline], the IC50 was 0.0072 µM in data set [1]; > 100 µmol/L in [2] (Homo sapiens, MCF7a); 16.4 ± 0.62 µmol/L in data set [3] (Homo sapiens, MCF7S); 57.4 ± 1.98 µmol/L in [4] (Homo sapiens); 14.5 ± 0.37 µmol/L in the data set with keratinocyte Colo-16 (Keratinocyte); 13.6 ± 0.85 µmol/L in data set [5]. Also, the IC50 in [6] (Homo sapiens, MCF7S) turned out to be 15.9 ± 1.15 µmol/L. The “Stability (in air)” value in data set [7] was “Stable in air,”. The “Stability (photostability)” value in data set [7] is recorded as “photostable”. In addition, the “Solubility in DMSO” value in data set [8] is recorded as “Highly soluble in DMSO”. The “Solubility in methanol and ethanol” value in data set [8] is “soluble in water, soluble in methanol”. Further, in [8], the Solubility in water result is listed as “slightly”.

For the compound `COc1cc2ncnc(Nc3ccc(F)c(Cl)c3)c2cc1OCC[N]1CC[NH][Ru+]1([Cl])[c]1cc(C(C)C)ccc1C.F[P-](F)(F)(F)(F)F` (stereo not drawn) [ZW2001], the IC50 in data set [1] is 0.081 µM; in data set [2] it was > 100 µmol/L; in [3], > 100 µmol/L; in data set [4], > 100 µmol/L; with keratinocyte Colo-16, 42.8 ± 2.46 µmol/L; in [5] it was > 100 µmol/L. Also, the IC50 in data set [6] was found to be 56.1 ± 2.66 µmol/L. Further, in data set [7], the “Stability (in air)” value is given as “Stable in air,”. Moreover, the “Stability (photostability)” value in data set [7] was “photostable”. The “Solubility in DMSO” value in [8] is given as “Highly soluble in DMSO”. For the same compound, the “Solubility in methanol and ethanol” value in data set [8] was “soluble in water, soluble in methanol”. In addition, the Solubility in water entry in [8] is “slightly”.

On to `COc1cc2ncnc(Nc3ccc(F)c(Cl)c3)c2cc1OCC[N]1CC[NH][Ru+]1([Cl])[c]1cccc(-c2ccccc2)c1.F[P-](F)(F)(F)(F)F` (stereo not drawn) [ZW2003], for which the IC50 is 0.126 µM in data set [1]; > 100 µmol/L in data set [2]; 79.1 ± 11.6 µmol/L in data set [3]; > 100 µmol/L in data set [4]; 54.2 ± 4.98 µmol/L in the data set on keratinocyte Colo-16; 81.3 ± 6.94 µmol/L in data set [5]. In addition, the IC50 in data set [6] was 28.7 ± 8.75 µmol/L. Further, in [7], the “Stability (in air)” value is recorded as “Stable in air,”. Moreover, the “Stability (photostability)” value in data set [7] was “photostable”. The “Solubility in DMSO” value in data set [8] was “Highly soluble in DMSO”. Further, the “Solubility in methanol and ethanol” value in data set [8] is given as “soluble in water, soluble in methanol”. Moreover, the Solubility in water result in data set [8] is listed as “slightly”.

In the case of `COc1cc2ncnc(Nc3ccc(F)c(Cl)c3)c2cc1OCCC[N]1CC[NH][Ru+]1([Cl])[c]1cccc(-c2ccccc2)c1.F[P-](F)(F)(F)(F)F` (stereo not drawn) [ZW2006], the IC50 is 0.0762 µM in [1]; > 100 µmol/L in data set [2]; 48.8 ± 7.82 µmol/L in data set [3]; > 100 µmol/L in data set [4]; 55.8 ± 1.55 µmol/L with keratinocyte Colo-16; 43.8 ± 3.9 µmol/L in data set [5]. For the same compound, the IC50 in data set [6] was found to be 21.7 ± 7.44 µmol/L. In addition, in data set [7], the “Stability (in air)” value is “Stable in air,”. Besides, the “Stability (photostability)” value in data set [7] is recorded as “photostable”. Moreover, the “Solubility in DMSO” value in data set [8] is “Highly soluble in DMSO”. Further, the “Solubility in methanol and ethanol” value in data set [8] is on record as “soluble in water, soluble in methanol”. Moreover, in [8], the Solubility in water result was “slightly”.
